{"source": "ChEMBL document CHEMBL2069241", "about": "“Isosteric replacements for benzothiazoles and optimisation to potent Cathepsin K inhibitors free from hERG channel inhibition” (Bioorg Med Chem Lett, 2012)", "key": {"physchem [1]": {"test": "physchem", "conditions": "buffer, pH 7.4"}, "physchem [2]": {"test": "physchem", "conditions": "buffer, pH 7.4", "remark": "listed apart in the source"}, "[3]": {"test": "Oral bioavailability in Han Wistar rat at 2 mg/kg", "format": "ADME, organism-based", "conditions": "in vivo"}, "[4]": {"test": "Volume of distribution at steady state in Han Wistar rat at 1 mg/kg, iv and 2 mg/kg, po", "format": "ADME, organism-based", "conditions": "in vivo, read-out: Vdss"}, "[5]": {"test": "Oral bioavailability in beagle dog at 1 mg/kg", "format": "ADME, organism-based, Canis lupus familiaris", "conditions": "in vivo"}, "[6]": {"test": "Volume of distribution at steady state in beagle dog at 1 mg/kg, iv and 1 mg/kg, po", "format": "ADME, organism-based, Canis lupus familiaris", "conditions": "in vivo, read-out: Vdss"}}, "data": [{"compound": "N#CC1(NC(=O)[C@@H]2CCCC[C@H]2C(=O)N2CCN(c3nc(-c4ccccc4)cs3)CC2)CC1", "values": [{"measurement": "solubility", "setting": "physchem [1]", "result": 96, "unit": "µM"}, {"measurement": "logD", "setting": "physchem [2]", "result": 3.5}]}, {"compound": "N#CC1(NC(=O)[C@@H]2CCCC[C@H]2C(=O)N2CCN(c3nc4ccccc4s3)CC2)CC1", "values": [{"measurement": "solubility", "setting": "physchem [1]", "result": 1000, "unit": "µM"}, {"measurement": "bioavailability", "setting": "[3]", "result": 20, "unit": "%"}, {"measurement": "Vd", "setting": "[4]", "result": 1.5, "unit": "L/kg"}, {"measurement": "bioavailability", "setting": "[5]", "result": 78, "unit": "%"}, {"measurement": "logD", "setting": "physchem [2]", "result": 2.6}, {"measurement": "Vd", "setting": "[6]", "result": 1.5, "unit": "L/kg"}]}, {"compound": "N#CC1(NC(=O)[C@@H]2CCCC[C@H]2C(=O)N2CCN(c3nccs3)CC2)CC1", "values": [{"measurement": "solubility", "setting": "physchem [1]", "result": 3100, "unit": "µM"}, {"measurement": "logD", "setting": "physchem [2]", "result": 1.3}]}, {"compound": "CC(C)(C)c1csc(N2CCN(C(=O)[C@@H]3CCCC[C@H]3C(=O)NC3(C#N)CC3)CC2)n1", "values": [{"measurement": "solubility", "setting": "physchem [1]", "result": 280, "unit": "µM"}, {"measurement": "logD", "setting": "physchem [2]", "result": 3.3}]}, {"compound": "N#CC1(NC(=O)[C@@H]2CCCC[C@H]2C(=O)N2CCN(c3nc(C(F)(F)F)cs3)CC2)CC1", "values": [{"measurement": "logD", "setting": "physchem [2]", "result": 2.4}]}, {"compound": "Cc1sc(N2CCN(C(=O)[C@@H]3CCCC[C@H]3C(=O)NC3(C#N)CC3)CC2)nc1C(F)(F)F", "values": [{"measurement": "logD", "setting": "physchem [2]", "result": 2.9}]}, {"compound": "N#CC1(NC(=O)[C@@H]2CCCC[C@H]2C(=O)N2CCN(c3nc(C(F)(F)F)c(Cl)s3)CC2)CC1", "values": [{"measurement": "logD", "setting": "physchem [2]", "result": 3.4}]}, {"compound": "N#Cc1cnc(N2CCN(C(=O)[C@@H]3CCCC[C@H]3C(=O)NC3(C#N)CC3)CC2)s1", "values": [{"measurement": "logD", "setting": "physchem [2]", "result": 1.2}]}, {"compound": "CS(=O)(=O)c1ccc2nc(N3CCN(C(=O)[C@@H]4CCCC[C@H]4C(=O)NC4(C#N)CC4)CC3)sc2c1", "values": [{"measurement": "bioavailability", "setting": "[3]", "result": 3.3, "unit": "%"}, {"measurement": "Vd", "setting": "[4]", "result": 0.54, "unit": "L/kg"}, {"measurement": "logD", "setting": "physchem [2]", "result": 1.5}]}, {"compound": "CC(C)(C#N)c1cnc(N2CCN(C(=O)[C@@H]3CCCC[C@H]3C(=O)NC3(C#N)CC3)CC2)s1", "values": [{"measurement": "solubility", "setting": "physchem [1]", "result": 2600, "unit": "µM"}, {"measurement": "logD", "setting": "physchem [2]", "result": 1.9}]}, {"compound": "N#CC1(NC(=O)[C@@H]2CCCC[C@H]2C(=O)N2CCN(c3nc4ccncc4s3)CC2)CC1", "values": [{"measurement": "solubility", "setting": "physchem [1]", "result": "> 1600", "unit": "µM"}, {"measurement": "logD", "setting": "physchem [2]", "result": 1.6}]}, {"compound": "N#CC1(NC(=O)[C@@H]2CCCC[C@H]2C(=O)N2CCN(c3nc4cnccc4s3)CC2)CC1", "values": [{"measurement": "solubility", "setting": "physchem [1]", "result": "> 1500", "unit": "µM"}, {"measurement": "bioavailability", "setting": "[3]", "result": 17, "unit": "%"}, {"measurement": "Vd", "setting": "[4]", "result": 0.8, "unit": "L/kg"}, {"measurement": "logD", "setting": "physchem [2]", "result": 1.7}]}, {"compound": "N#CC1(NC(=O)[C@@H]2CCCC[C@H]2C(=O)N2CCN(c3nc4ncccc4s3)CC2)CC1", "values": [{"measurement": "solubility", "setting": "physchem [1]", "result": "> 2000", "unit": "µM"}, {"measurement": "logD", "setting": "physchem [2]", "result": 1.4}]}, {"compound": "N#CC1(NC(=O)[C@@H]2CCCC[C@H]2C(=O)N2CCN(c3nc4c(s3)CCC4)CC2)CC1", "values": [{"measurement": "logD", "setting": "physchem [2]", "result": "> 3"}]}, {"compound": "N#CC1(NC(=O)[C@@H]2CCCC[C@H]2C(=O)N2CCN(c3nc4c(s3)COCC4)CC2)CC1", "values": [{"measurement": "solubility", "setting": "physchem [1]", "result": "> 3600", "unit": "µM"}, {"measurement": "bioavailability", "setting": "[3]", "result": 33, "unit": "%"}, {"measurement": "Vd", "setting": "[4]", "result": 1.3, "unit": "L/kg"}, {"measurement": "logD", "setting": "physchem [2]", "result": 1.4}]}, {"compound": "CC1(C)COCc2sc(N3CCN(C(=O)[C@@H]4CCCC[C@H]4C(=O)NC4(C#N)CC4)CC3)nc21", "values": [{"measurement": "solubility", "setting": "physchem [1]", "result": 1700, "unit": "µM"}, {"measurement": "logD", "setting": "physchem [2]", "result": 2.4}]}]}
